From patent US20070037833A1, “Compositions and methods for inhibiting neurodegeneration” (priority 2005, published 2007)
“Also recorded” adds a separate entry of the source.

Tests used:
[1] = Robeva et al.; cited from earlier work
[2] = system: MAP kinase; assay: Immunoblot for phosphoMAPK in spinal cord cultures; type: cell-based, rat
Experimental: (§1) Cells were lysed in 1% NP-40 lysis buffers containing protease inhibitors, subjected to SDS-PAGE and immunoblotted as previously described (Fryer et al., 1999; Fryer et al., 2000). For immunoprecipitation, lysates from 60 mm dishes were pre-cleared by incubation with protein A beads (Santa Cruz), incubated with primary antibody (4 μg/ml)×2 hours then 50 μL of beads added and incubated overnight with gentle agitation at 4° C. Beads were pelleted, washed 5× with 10 mM Tris pH 7.4+0.5 mM EGTA+0.5 mM EDTA+0.1% NP40 before elution in 1× Laemelli sample buffer. Antibody sources: BD Transduction Labs—TrkB and MAP Kinase used at 1:500, Cell Signaling—Akt 1:1000; phosphoTrk (tyr490) 1:1000; phospho p42/44 MAP Kinase (thr 202/tyr204) 1:1000; phosphoAkt (ser473) 1:500; IGFI antibody (tyr 1131) 1:500. Upstate—adenosine A2a 1:1000. Sigma—actin 1:200. Biosource—active src (clone 28) 1:200.
We next asked about the effect of the adenosine A2 receptor antagonism on Trk signaling. Cultures of spinal cord cells (grown in the presence of a cocktail of trophic factors including 10 ng/ml BDNF) received KW6002 (1 μM), MRS1754 (50 nM) or vehicle (DMSO 0.1%) and 24 hrs. later, lysates were prepared for immunoblots for Trk and the MAP kinase downstream signaling module (FIG. 2, panel a). Immunoblots for phosphoTrk and phosphoMAPK were employed to monitor the state of activation of these proteins.
(§2) We followed up these observations by determining the effect of enprofylline on Trk signaling and determined the extent to which the resultant biochemical changes mimic the effects of direct pharmacological Trk antagonism with CEP4416. […] The effect of drug treatment on AKT was particularly marked. […] To determine the specificity of these agents, we examined their effect on Insulin-like growth factor 1 (IGF1) signaling through the IGF receptor tyrosine kinase (IGFR). […] It is unlikely that phosphodiesterase activity of enprofylline can explain these observations as increased cAMP levels enhance, not suppress, TrkB activation (Boulanger and Poo, 1999; Ji et al., 2005).

[3] = system: src-family kinases (SFK); assay: Immunoblot for active SFKs (clone 28 antibody) in spinal cord cultures; type: cell-based, rat; conditions: 24 hours treatment
Experimental: as §1
The precise mechanism by which G-protein coupled receptors trans-activate receptor tyrosine kinases is complex and to some extent receptor-subtype specific (Luttrell et al., 1999; Downward, 2003; Piiper and Zeuzem, 2004; Waters et al., 2004). […] If this pathway was operative in spinal cord neurons, then antagonism of adenosine A2a receptors might lead to reduced src activation and antagonism of SFKs might be neuro-protective. Src is negatively regulated by phosphorylation of tyrosine 529 (refers to human src sequence) and an antibody that recognizes a de-phospho epitope in this region (“clone 28”) is a reliable measure of active src and SFKs (Kawakatsu et al., 1996). We began by asking for adenosine A2a receptors and active SFKs are present in the same cells and if so, their subcellular distribution. Pure motor neurons, grown in the presence of BDNF were immunostained with a rabbit anti-adenosine A2a receptor and the clone 28 antibody. One hundred percent of motor neurons expressed both antigens and on dendrites, the immunoreactivity formed discrete fine puncta (FIG. 5a). Many, but not all, puncta were stained with both antibodies. […]

[4] = system: IGF receptor tyrosine kinase (IGFR); assay: Immunoblot for phospho-IGFR in spinal cord cultures; type: cell-based, rat
Experimental: as §1, §2

[5] = system: motor neurons expressing G59S p150^glued; assay: Motor neuron death from HSV-expressed mutant p150glued in spinal cord cultures; type: cell-based, rat; conditions: 6 days post-infection; treatment daily or every other day
From the text: (§3) Various cDNAs were cloned into the PrpUC amplicon plasmid and were used to generate recombinant HSV as previously described (Neve et al., 1997). The titer of viruses used in these studies were routinely 3-5×10^7 plaque-forming units/ml. The cDNA for wild type/mutant SOD and wild type/mutant p150^glued were gifts of D. Borchelt and E. Holzbaur, respectively. The K295R mutant version of chick src was a gift of J. Brugge.
(§4) Mutations in superoxide dismutase (SOD) or the p150^glued subunit of dynactin are known to account for a familial form of ALS in a subpopulation of individuals (Rosen, 1993; Puls et al., 2003; Bruijn et al., 2004). We inquired whether expression the mutant forms of SOD or p150^glued caused motor neuron death in vitro and if Trk antagonism was neuroprotective. Recombinant herpes simplex viruses (HSVs) were generated that expressed wild type or mutant form of SOD (G85R) and wild type or mutant p150^glued (G59S). […] Spinal cord cultures were infected with virus at 14 DIV and the number of motor neurons was determined 2, 4, 6 or 8 days later (FIG. 4, panel a.).
(§5) We next determined if KW6002 could protect motor neurons from the toxic effects of mutant proteins. Spinal cord cultures were infected with viruses expressing wild type or mutant versions of SOD or p150^glued at 14 DIV, then treated with drug or vehicle for 4 days (FIG. 4, panel b.). […]

[6] = system: motor neurons expressing G85R SOD; assay: Motor neuron death from HSV-expressed mutant SOD in spinal cord cultures; type: cell-based, rat; conditions: 6 days post-infection; treatment daily or every other day
From the text: as §3, §4, §5

CCCn1c(=O)[nH]c(=O)c2[nH]cnc21 [enprofylline, 3-propylxanthine]
bioavailability [1]: good | abundance of phosphoMAPK ([2]; 6 and 24 hours, 100 μM enprofylline, 30 nM CEP-4416): decrease in the abundance of phosphoAKT and phosphoMAPK at 6 and 24 hours | phosphorylation of MAP kinase ([2]; 6 hours post drug administration): decreases in the phosphorylation of Trk, MAP kinase and Akt | abundance of phosphoMAPK ([2]; 24 hours treatment): robust reduction in phosphoTrk, phosphoMAPK and phosphoAKT | phosphorylation of MAPK ([2]; 48 hours post drug administration): largely returned to baseline | abundance of active SFKs [3]: reduced | abundance of active SFKs ([3]; listed as Enprofylline): caused a reduction in the abundance of active SFKs | IGF1-induced IGFR phosphorylation ([4]; 24 hour pretreatment, then acute IGF1): neither CEP-4416 nor enprofylline blunted the acute response; also recorded: undiminished by 24 hour pretreatment | basal state of IGFR phosphorylation ([4]; 24 hour treatment): Neither drug led to an alteration in the abundance in the phosphorylated species; also recorded: had no effect on the basal state of IGFR phosphorylation | motor neuron survival / toxicity of G59S p150glued [5]: significantly greater number of motor neurons; also recorded: completely prevented the toxicity of mutant protein expression | motor neuron survival / toxicity of G85R SOD [6]: significantly greater number of motor neurons; also recorded: completely prevented the toxicity of mutant protein expression
